Experimental data taken from PubChem BioAssay (NCI).
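The concentration for 50% growth inhibition is given as GI50. At the TGI there is no net growth.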

Legend:
Test in all cases: NCI anticancer screen, dose series, 384-well format
[1] = test system: NCI/ADR-RES ovarian
[2] = test system: PC-3 prostate
[3] = test system: SK-OV-3 ovarian
[4] = test system: LOX IMVI melanoma
[5] = test system: CCRF-CEM leukemia
[6] = test system: SF-539 CNS
[7] = test system: SF-268 CNS
[8] = test system: ACHN renal
[9] = test system: RXF 393 renal
[10] = test system: DU-145 prostate
[11] = test system: MDA-MB-435 melanoma
[12] = test system: COLO 205 colon
[13] = test system: HOP-62 NSCLC
[14] = test system: OVCAR-4 ovarian
[15] = test system: OVCAR-8 ovarian
[16] = test system: 786-0 renal
[17] = test system: U251 glioblastoma
[18] = test system: SK-MEL-2 melanoma
[19] = test system: MALME-3M melanoma
[20] = test system: HCT-116 colon
[21] = test system: CAKI-1 renal
[22] = test system: SK-MEL-5 melanoma
[23] = test system: HT29 colon
[24] = test system: NCI-H322M lung
[25] = test system: MOLT-4 leukemia
[26] = test system: KM12 colon
[27] = test system: SW-620 colon
[28] = test system: MCF7 breast
[29] = test system: M14 melanoma
[30] = test system: A498 renal
[31] = test system: OVCAR-3 ovarian
[32] = test system: HCT-15 colon
[33] = test system: SR leukemia
[34] = test system: RPMI-8226 leukemia
[35] = test system: TK-10 renal
[36] = test system: HL-60(TB) leukemia
[37] = test system: SN12C renal
[38] = test system: NCI-H23 lung
[39] = test system: MDA-MB-231 breast
[40] = test system: SK-MEL-28 melanoma
[41] = test system: SF-295 CNS
[42] = test system: BT-549 breast
[43] = test system: HOP-92 NSCLC
[44] = test system: K-562 leukemia
[45] = test system: IGROV1 ovarian
[46] = test system: A549 NSCLC
[47] = test system: NCI-H226 lung
[48] = test system: MDA-MB-468 breast
[49] = test system: T-47D breast
[50] = test system: UO-31 renal
[51] = test system: SNB-19 CNS
[52] = test system: UACC-62 melanoma
[53] = test system: NCI-H460 NSCLC
[54] = test system: OVCAR-5 ovarian
[55] = test system: NCI-H522 lung
[56] = test system: UACC-257 melanoma

## CC(C)(/C=C(\C#N)C(=O)N1CCC[C@@H](n2nc(-c3ccc(Oc4ccccc4)cc3F)c3c(N)ncnc32)C1)N1CCN(C2COC2)CC1
[1]
  GI50: 13.8 µM
  TGI: 27.1 µM
[2]
  GI50: 3.73 µM
  TGI: 13.8 µM
[3]
  GI50: 1.23 µM
  TGI: 3 µM
[4]
  GI50: 2.3 µM
  TGI: 4.09 µM
[5]
  GI50: 1.49 µM
  TGI: 2.86 µM
[6]
  GI50: 2.08 µM
  TGI: 5.39 µM
[7]
  GI50: 2.29 µM
  TGI: 7.3 µM
[8]
  GI50: 9.03 µM
  TGI: 21.2 µM
[9]
  GI50: 1.19 µM
  TGI: 3.04 µM
[10]
  GI50: 9.84 µM
  TGI: 29.1 µM
[11]
  GI50: 0.0551 µM
  TGI: 0.448 µM
[12]
  GI50: 1.63 µM
  TGI: 5.8 µM
[13]
  GI50: 2.47 µM
  TGI: 5.82 µM
[14]
  GI50: 1.35 µM
  TGI: 7.72 µM
[15]
  GI50: 5.91 µM
  TGI: 18 µM
[16]
  GI50: 3.07 µM
  TGI: 10.4 µM
[17]
  GI50: 2.6 µM
  TGI: 8.45 µM
[18]
  GI50: 0.0857 µM
  TGI: 1.08 µM
[19]
  GI50: 1.28 µM
  TGI: 5.26 µM
[20]
  GI50: 2.9 µM
  TGI: 10.6 µM
[21]
  GI50: 3.41 µM
  TGI: 9.34 µM
[22]
  GI50: 1.41 µM
  TGI: 2.92 µM
[23]
  GI50: 1.73 µM
  TGI: 3.48 µM
[24]
  GI50: 6.84 µM
  TGI: 23.2 µM
[25]
  GI50: 0.157 µM
  TGI: 0.46 µM
[26]
  GI50: 0.712 µM
  TGI: 2.47 µM
[27]
  GI50: 1.87 µM
  TGI: 3.63 µM
[28]
  GI50: 2.28 µM
  TGI: 10.4 µM
[29]
  GI50: 2.08 µM
  TGI: 5.29 µM
[30]
  GI50: 2.39 µM
  TGI: 5.72 µM
[31]
  GI50: 0.289 µM
  TGI: 1.6 µM
[32]
  GI50: 4.52 µM
  TGI: 15.1 µM
[33]
  GI50: 0.0378 µM
  TGI: 0.208 µM
[34]
  GI50: 1.14 µM
  TGI: 2.38 µM
[35]
  GI50: 6.64 µM
  TGI: 18.9 µM
[36]
  GI50: 1.5 µM
  TGI: 2.89 µM
[37]
  GI50: 2.82 µM
  TGI: 7.62 µM
[38]
  GI50: 3.51 µM
  TGI: 9.62 µM
[39]
  GI50: 2.54 µM
  TGI: 7.28 µM
[40]
  GI50: 1.86 µM
  TGI: 5.23 µM
[41]
  GI50: 9.51 µM
  TGI: 21.5 µM
[42]
  GI50: 1.21 µM
  TGI: 2.78 µM
[43]
  GI50: 1.38 µM
  TGI: 3.76 µM
[44]
  GI50: 1.24 µM
  TGI: 2.82 µM
[45]
  GI50: 2.94 µM
  TGI: 9.69 µM
[46]
  GI50: 3.55 µM
  TGI: 13.2 µM
[47]
  GI50: 2.18 µM
  TGI: 5.42 µM
[48]
  GI50: 0.239 µM
  TGI: 1.16 µM
[49]
  GI50: 2.33 µM
  TGI: 11 µM
[50]
  GI50: 7.98 µM
  TGI: 20.3 µM
[51]
  GI50: 3.69 µM
  TGI: 12.1 µM
[52]
  GI50: 1.12 µM
  TGI: 3.24 µM
[53]
  GI50: 1.87 µM
  TGI: 3.72 µM
[54]
  GI50: 10.5 µM
  TGI: 22.9 µM
[55]
  GI50: 0.164 µM
  TGI: 1.36 µM
[56]
  GI50: 1.49 µM
  TGI: 3.81 µM
